Measured values as given in patent publication US7666885B2, “Enzyme inhibitors” (Consejo Superior de Investigaciones Cientificas, priority 2000, dated 2010).
Like-named read-outs stand apart in the source and are kept apart here.

What was measured:
[1] = molecular target: T1, GSK-3β (Homo sapiens, UniProt P49841); assay: GSK-3β inhibition (radiometric, GS 1 peptide); format: biochemical
T1 construct: purchased Sigma
Procedure: GSK-3β inhibition: The GSK-3 activity was determined by incubation of a mixture of GSK-3 enzyme (Sigma), a phosphate source and a GSK-3 substrate in the presence and in the absence of the corresponding test compound, and by measuring the GSK-3 activity of this mixture.
The reaction is quenched by addition of an aliquot of the reaction mixture in phosphocelullose p81 papers. These papers are washed three times with phosphoric acid 1% and the radioactivity incorporated to the GS 1 peptide is measured in a liquid scintillation counter.

[2] = tested on: N2A cells; assay: Cell cycle blockade; format: cell-based, mice; conditions: N2A cell cultures, Table 5
Procedure: In parallel, the potential interference of these compounds with the cell cycle was studied on N2A cells. The cell culture was maintained in a Dulbecco medium (DEMEM) with a 10% fethal bovine serum, glutamine (2 mM) and antibiotics.
The first four compounds of general formula (I) gathered in Table 3 were assayed in the described conditions and shown ability to inhibit the cell cycle at an inhibitor concentration comprised between 100 nM and 1 μM. The cellular blockade was initially observed at concentrations comprised between 100-200 nM and was totally effective at 1 μM.

[3] = GSK-3 enzyme (Sigma), 15 μM ATP, GS 1 peptide, Tables 3, 3a, 4, read-out: IC50
[4] = Tables 4a, 4b, read-out: GSK-3β IC50

T1 sequence (P49841 whole entry, species assumed): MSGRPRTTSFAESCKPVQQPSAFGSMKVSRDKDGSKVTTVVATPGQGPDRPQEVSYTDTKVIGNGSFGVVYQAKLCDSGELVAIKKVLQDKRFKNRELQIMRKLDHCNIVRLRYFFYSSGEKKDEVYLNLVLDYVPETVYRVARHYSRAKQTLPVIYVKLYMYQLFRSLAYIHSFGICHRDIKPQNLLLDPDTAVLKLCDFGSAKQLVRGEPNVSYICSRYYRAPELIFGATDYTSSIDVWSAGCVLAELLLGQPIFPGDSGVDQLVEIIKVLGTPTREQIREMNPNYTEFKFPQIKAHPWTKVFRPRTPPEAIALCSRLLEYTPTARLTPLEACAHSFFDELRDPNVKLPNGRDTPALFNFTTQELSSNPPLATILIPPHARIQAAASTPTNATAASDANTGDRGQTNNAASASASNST

Compound	IC50 [1, 3] [µM]	further results
Cn1sc(=O)n(-c2ccc(F)cc2)c1=O [Compound 17, 4-(4-Fluorophenyl)-2-methyl-1,2,4-thiadiazolidine-3,5-dione]	4	–
Cn1sc(=O)n(Cc2ccccc2)c1=O [Compound 1, 4-Benzyl-2-methyl-1,2,4-thiadiazolidine-3,5-dione]	–	IC50 ([2]; Mus musculus): 4 to 8 µM
CCn1c(=O)sn(C2CCCCC2)c1=O [Compound 4, 2-Cyclohexyl-4-ethyl-1,2,4-thiadiazolidine-3,5-dione]	10	IC50 ([2]; Mus musculus): 6 to 9 µM
COc1ccc(-n2c(=O)sn(C)c2=O)cc1 [Compound 7, 4-(4-Methoxyphenyl)-2-methyl-1,2,4-thiadiazolidine-3,5-dione]	–	IC50 ([2]; Mus musculus): 1 to 2 µM
CCn1sc(=O)n(CC)c1=O [Compound 13, 2,4-diethyl-5-oxo-1,2,4-thiadiazolidine-3,5-dione]	20	–
CCn1c(=O)sn(C(C)C)c1=O [Compound 9, 4-Ethyl-2-isopropyl-1,2,4-thiadiazolidin-3,5-dione]	35	–
CCn1sc(=O)n(-c2ccc([N+](=O)[O-])cc2)c1=O [Compound 49, 2-Ethyl-4-(4-nitrophenyl)-1,2,4-thiadiazolidine-3,5-dione]	8.5	–
CCCn1sc(=O)n(CC)c1=O [Compound 3, 4-Ethyl-2-n-propyl-1,2,4-thiadiazolidine-3,5-dione]	10	IC50 ([2]; Mus musculus): 5 to 10 µM
O=C1CSC(=S)N1CCc1ccccc1 [Compound 5-G, 3-Phenethyl-2-thioxo-thiazolidin-4-One]	35	–
O=C1C=CC(=O)C1 [Compound 1-B]	12	–
CCn1sc(=O)n(Cc2ccccc2)c1=S [Compound 10, 4-Benzyl-2-ethyl-5-oxo-1,2,4-thiadiazolidine-3-thione]	6	–
O=C1NC(=O)c2ccccc21 [Compound 1-F]	> 100	–
O=C1c2ccccc2C(=O)N1Cc1ccccc1 [Compound 2-F]	> 100	–
CCn1sc(=O)n(CCc2ccccc2)c1=O [Compound 41, 2-Ethyl-4-phenethyl-1,2,4-thiadiazolidine-3,5-dione]	8	–
CCn1sc(=NO)n(Cc2ccccc2)c1=O [Compound 36, 4-Benzyl-2-ethyl-1,2,4-thiadiazolidine-3-one-5-oxime]	6	–
Cn1sc(=O)n(-c2ccc(Br)cc2)c1=O [Compound 16, 4-(4-Bromophenyl)-2-methyl-1,2,4-thiadiazolidine-3,5-dione]	3	–
O=C1C=CC(=O)N1CCCCCc1ccccc1 [Compound 6-D, N-(5-phenylpentyl)maleimide]	–	melting point: 49 to 51 °C
CCn1c(=O)sn(C)c1=O [Compound 2, 4-Ethyl-2-methyl-1,2,4-thiadiazolidine-3,5-dione]	5	IC50 ([2]; Mus musculus): 40 to 100 µM
O=c1sn(Cc2ccccc2)c(=S)n1Cc1ccccc1 [Compound 11, 2,4-Dibenzyl-5-oxo-thiadiazolidine-3-thione]	10	IC50 [2]: 1 to 2 µM
O=c1[nH]sc(=O)n1Cc1ccccc1 [Compound 42, 4-Benzyl-1,2,4-thiadiazolidine-3,5-dione]	50	–
O=C1CCC(=O)C1 [Compound 1-A]	> 100	–
O=C(CN1C(=O)CSC1=S)c1ccccc1 [Compound 6-G, 3-Phenacyl-2-thioxo-thiazolidin-4-One]	50	–
O=C1C=CC(=O)N1CCc1ccccc1 [Compound 4-D, N-phenethylmaleimide]	–	IC50 [1, 4]: 2 µM

Compound	IC50 [1, 3] [µM]	further results
Cn1sc(=O)n(-c2ccc(Cl)cc2)c1=O [Compound 18, 4-(4-Chlorophenyl)-2-methyl-1,2,4-thiadiazolidine-3,5-dione]	4	–
O=C(c1ccccc1)n1sc(=O)n(Cc2ccccc2)c1=O [Compound 31, 2-Benzoyl-4-benzyl-1,2,4-thiadiazolidine-3,5-dione]	3	–
O=C1C=CC(=O)N1CCCc1ccccc1 [Compound 5-D, N-(3-phenylpropyl)maleimide]	–	melting point: 79 to 80 °C
CCOC(=O)Cn1c(=O)sn(C)c1=O [Compound 6, 4-(Ethoxycarbonylmethyl)-2-methyl-1,2,4-thiadiazolidine-3,5-dione]	5	IC50 ([2]; Mus musculus): 1 to 2 µM
CCOC(=O)Cn1c(=O)sn(C(C)C)c1=O [Compound 46, 4-(Ethoxycarbonylmethyl)-2-isopropyl-1,2,4-thiadiazolidine-3,5-dione]	7	–
3-(4-Ethyl-3-oxo-2-methyl-1,2,4-thiadiazolidin-5-ylidine)aminopyridine-1-oxide [Compound 23]	> 100	–
NN1C(=O)CSC1=S [Compound 7-G]	–	IC50 [1, 4]: > 100 µM
Cn1c(=O)n(-c2ccccc2)c(=O)n1C [Compound 2-H]	> 100	–
O=C1CCC(=O)N1Cc1ccccc1 [Compound 2-E]	> 100	–
CCn1sc(=O)n(Cc2ccccc2)c1=O [Compound 8, 4-Benzyl-2-ethyl-1,2,4-thiadiazolidine-3,5-dione]	7	IC50 ([2]; Mus musculus): 4 to 7 µM
4-Ethyl-5-[imino-(1-methyl-piperidin-3-yl)]-2-methyl-1,2,4-thiadiazolidin-3-One [Compound 25]	> 100	–
Cn1sc(=O)n(-c2ccccc2)c1=O [Compound 5, 4-Phenyl-2-methyl-1,2,4-thiadiazolidin-3,5-dione]	2	IC50 ([2]; Mus musculus): 4 to 7 µM
CCn1sc(=NO)n(-c2ccccc2)c1=O [Compound 50, 2-Ethyl-4-phenyl-1,2,4-thiadiazolidine-3-one-5-oxime]	100	–
CCOC(=O)Cn1c(=O)sn(C)c1=O [Compound 45, 4-(Ethoxycarbonylmethyl)-2-methyl-1,2,4-thiadiazolidine-3,5-dione]	2	–
CCOC(=O)Cn1sc(=O)n(CC(=O)OCC)c1=O [Compound 44, 4-(Ethoxycarbonylmethyl)-2-(ethoxycarbonylmethyl)-1,2,4-thiadiazolidine-3,5-dione]	4	–
COc1ccc(CN2C(=O)C=CC2=O)cc1 [Compound 7-D, N-(p-methoxybenzyl)maleimide]	–	IC50 [1, 4]: 2.5 µM
CCOC(=O)Cn1sc(=O)n(Cc2ccccc2)c1=O [Compound 33, 4-Benzyl-2-(Ethoxycarbonylmethyl)-1,2,4-thiadiazolidine-3,5-dione]	4	–
O=c1sn(-c2ccccc2)c(=S)n1-c1ccccc1 [Compound 12, 2,4-diphenyl-5-oxo-thiadiazolidine-3-thione]	20	IC50 [2]: 4 to 8 µM
O=C(O)CN1C(=O)CSC1=S [Compound 3-G, (4-oxo-2-thioxo-thiazolidin-3-yl)-acetic acid]	> 100	–
CCOC(=O)Cn1c(=O)sn(C(=O)c2ccccc2)c1=O [Compound 47, 2-Benzoyl-4-(ethoxycarbonylmethyl)-1,2,4-thiadiazolidine-3,5-dione]	4	–
COc1ccc(CCN2C(=O)C=CC2=O)cc1 [Compound 8-D, N-(p-Methoxyphenethyl)maleimide]	–	melting point: 79 to 81 °C
Cc1ccc(-n2c(=O)sn(C)c2=O)cc1 [Compound 15, 4-(4-Methylphenyl)-2-methyl-1,2,4-thiadiazolidine-3,5-dione]	5	–
3-[5-(4-Ethyl-2-methyl-3-oxo)imino-1,2,4-thiadiazolidyl]-1-methyl-pyridinium iodide [Compound 24]	> 100	–
